Measured values from ChEMBL document CHEMBL5465560, “Selectivity Literature for EUbOPEN Chemogenomic Library” (2024).

Columns and labels:
[1] = molecular target: Serine/threonine-protein kinase NIM1 (Homo sapiens, UniProt Q8IY84); assay: Selectivity interaction (Kinase panel (Z-LYTE Assay)) EUB0001632a NIM1K; conditions: at 10 µM
[2] = molecular target: Cyclin-dependent kinase 9 (Homo sapiens, UniProt P50750); assay: Selectivity interaction (LanthaScreen Eu Kinase Binding Assay) EUB0001632a CDK9; conditions: at 10 µM
Sequence of Cyclin-dependent kinase 9 (P50750 whole entry): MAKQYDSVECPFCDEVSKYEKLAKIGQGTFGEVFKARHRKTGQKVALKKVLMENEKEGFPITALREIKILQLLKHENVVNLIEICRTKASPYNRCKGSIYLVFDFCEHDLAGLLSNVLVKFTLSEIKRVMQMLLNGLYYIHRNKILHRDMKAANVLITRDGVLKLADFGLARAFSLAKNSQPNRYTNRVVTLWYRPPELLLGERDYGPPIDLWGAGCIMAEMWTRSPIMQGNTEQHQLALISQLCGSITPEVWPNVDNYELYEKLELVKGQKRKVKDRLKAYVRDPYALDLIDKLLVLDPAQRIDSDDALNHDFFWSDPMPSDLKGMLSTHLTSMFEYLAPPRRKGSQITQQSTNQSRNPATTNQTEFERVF

[3] = molecular target: MAP/microtubule affinity-regulating kinase 3 (Homo sapiens) (UniProt P27448); assay: Selectivity interaction (ProQinase) EUB0000171b MARK3
Sequence of MAP/microtubule affinity-regulating kinase 3 (Homo sapiens) (P27448 whole entry, looked up): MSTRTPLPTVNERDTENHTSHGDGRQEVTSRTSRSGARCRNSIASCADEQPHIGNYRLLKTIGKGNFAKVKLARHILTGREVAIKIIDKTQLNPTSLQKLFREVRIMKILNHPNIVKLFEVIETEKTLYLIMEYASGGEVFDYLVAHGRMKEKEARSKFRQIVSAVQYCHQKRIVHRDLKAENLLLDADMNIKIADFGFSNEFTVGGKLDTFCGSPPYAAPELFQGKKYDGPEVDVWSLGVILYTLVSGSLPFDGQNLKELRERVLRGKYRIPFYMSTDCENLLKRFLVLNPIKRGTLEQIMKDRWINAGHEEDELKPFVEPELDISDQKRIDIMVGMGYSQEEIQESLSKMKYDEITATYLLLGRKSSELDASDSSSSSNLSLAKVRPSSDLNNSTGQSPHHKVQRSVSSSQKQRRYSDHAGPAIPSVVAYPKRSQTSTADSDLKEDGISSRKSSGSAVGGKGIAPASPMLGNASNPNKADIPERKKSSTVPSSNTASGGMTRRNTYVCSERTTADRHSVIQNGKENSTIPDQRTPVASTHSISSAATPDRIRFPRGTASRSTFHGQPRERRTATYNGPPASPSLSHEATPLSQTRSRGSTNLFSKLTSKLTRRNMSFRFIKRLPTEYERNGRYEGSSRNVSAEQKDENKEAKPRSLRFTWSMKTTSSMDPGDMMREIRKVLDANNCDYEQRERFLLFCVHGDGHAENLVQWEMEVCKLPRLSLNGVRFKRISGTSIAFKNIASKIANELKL

[4] = molecular target: T1, Protein kinase C epsilon type (Homo sapiens) (UniProt Q02156); assay: Selectivity interaction (KinomeScan (DiscoverX)) EUB0001079a PRKCE; conditions: at 1 µM
T1 sequence (whole entry): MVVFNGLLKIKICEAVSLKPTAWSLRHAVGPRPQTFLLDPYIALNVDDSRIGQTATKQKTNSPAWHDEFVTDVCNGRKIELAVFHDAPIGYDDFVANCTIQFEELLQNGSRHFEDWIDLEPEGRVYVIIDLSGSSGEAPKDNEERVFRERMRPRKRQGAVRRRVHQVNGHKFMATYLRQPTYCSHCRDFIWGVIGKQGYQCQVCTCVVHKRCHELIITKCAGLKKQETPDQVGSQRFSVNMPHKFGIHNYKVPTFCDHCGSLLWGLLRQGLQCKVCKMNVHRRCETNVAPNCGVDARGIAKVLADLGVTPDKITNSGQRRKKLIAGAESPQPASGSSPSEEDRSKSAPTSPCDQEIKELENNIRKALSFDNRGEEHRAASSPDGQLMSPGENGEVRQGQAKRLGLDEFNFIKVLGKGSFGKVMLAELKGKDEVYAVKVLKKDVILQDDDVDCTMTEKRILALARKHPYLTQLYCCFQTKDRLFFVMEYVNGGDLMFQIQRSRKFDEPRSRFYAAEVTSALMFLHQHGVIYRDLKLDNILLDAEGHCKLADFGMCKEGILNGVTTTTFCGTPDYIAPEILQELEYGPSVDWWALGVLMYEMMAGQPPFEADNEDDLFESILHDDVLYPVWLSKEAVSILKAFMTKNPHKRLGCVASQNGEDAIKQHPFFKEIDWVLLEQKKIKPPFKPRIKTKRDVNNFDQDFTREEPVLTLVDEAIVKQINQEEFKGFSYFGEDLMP

[5] = molecular target: T2, Tyrosine-protein kinase Mer (Homo sapiens) (UniProt Q12866); assay: Selectivity interaction (KinomeScan (DiscoverX)) EUB0000229b MERTK; conditions: at 10 µM
T2 sequence (whole entry): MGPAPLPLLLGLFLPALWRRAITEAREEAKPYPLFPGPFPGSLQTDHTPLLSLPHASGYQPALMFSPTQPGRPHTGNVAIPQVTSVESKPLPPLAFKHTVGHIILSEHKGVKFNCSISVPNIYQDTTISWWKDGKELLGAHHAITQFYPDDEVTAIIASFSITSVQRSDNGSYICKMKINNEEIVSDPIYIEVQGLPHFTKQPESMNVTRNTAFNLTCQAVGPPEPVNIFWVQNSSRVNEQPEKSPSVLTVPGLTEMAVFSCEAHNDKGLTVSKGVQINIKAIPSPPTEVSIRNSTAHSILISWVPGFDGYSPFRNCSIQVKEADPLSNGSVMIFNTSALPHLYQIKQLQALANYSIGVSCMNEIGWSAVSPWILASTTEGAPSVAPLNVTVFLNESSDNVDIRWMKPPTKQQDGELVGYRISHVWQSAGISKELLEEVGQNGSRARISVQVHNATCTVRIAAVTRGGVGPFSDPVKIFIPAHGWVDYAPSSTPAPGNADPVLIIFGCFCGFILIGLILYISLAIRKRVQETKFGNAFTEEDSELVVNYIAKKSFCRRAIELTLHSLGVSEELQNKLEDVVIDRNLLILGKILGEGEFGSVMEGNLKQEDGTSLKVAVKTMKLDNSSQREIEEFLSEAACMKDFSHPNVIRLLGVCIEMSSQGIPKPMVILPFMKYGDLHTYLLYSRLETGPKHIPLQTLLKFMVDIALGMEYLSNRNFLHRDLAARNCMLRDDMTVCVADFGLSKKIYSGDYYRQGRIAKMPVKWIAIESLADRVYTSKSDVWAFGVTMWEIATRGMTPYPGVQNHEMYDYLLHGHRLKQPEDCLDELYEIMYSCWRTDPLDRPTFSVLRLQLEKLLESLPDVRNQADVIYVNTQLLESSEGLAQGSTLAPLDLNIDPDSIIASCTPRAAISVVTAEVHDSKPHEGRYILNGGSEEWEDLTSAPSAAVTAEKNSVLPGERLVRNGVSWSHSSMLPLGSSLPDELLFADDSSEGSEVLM

Insulin receptor = Insulin receptor (Homo sapiens, UniProt P06213); conditions: at 10 µM
Sequence of Insulin receptor (P06213 28-758 limits assumed): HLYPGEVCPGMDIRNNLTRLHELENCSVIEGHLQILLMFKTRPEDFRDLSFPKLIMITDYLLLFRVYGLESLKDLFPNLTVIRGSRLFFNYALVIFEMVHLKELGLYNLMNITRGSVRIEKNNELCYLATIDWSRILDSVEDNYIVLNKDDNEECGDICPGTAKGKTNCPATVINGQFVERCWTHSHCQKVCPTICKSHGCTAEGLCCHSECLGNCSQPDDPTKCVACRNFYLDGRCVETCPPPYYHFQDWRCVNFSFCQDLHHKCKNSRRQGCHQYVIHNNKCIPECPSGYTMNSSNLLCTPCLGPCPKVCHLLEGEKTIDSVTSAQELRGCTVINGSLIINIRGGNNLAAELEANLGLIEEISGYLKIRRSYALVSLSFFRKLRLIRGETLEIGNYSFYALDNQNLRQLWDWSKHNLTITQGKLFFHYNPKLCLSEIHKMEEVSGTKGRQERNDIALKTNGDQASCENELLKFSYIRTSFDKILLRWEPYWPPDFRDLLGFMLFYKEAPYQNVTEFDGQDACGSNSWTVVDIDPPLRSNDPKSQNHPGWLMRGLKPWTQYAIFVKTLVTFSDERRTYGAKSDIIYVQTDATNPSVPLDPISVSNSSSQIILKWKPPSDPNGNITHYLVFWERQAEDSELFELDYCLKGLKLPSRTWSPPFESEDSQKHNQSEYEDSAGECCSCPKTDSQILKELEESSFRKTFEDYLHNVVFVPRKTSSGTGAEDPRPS
Sequence of Insulin receptor (P06213 763-1382 limits assumed): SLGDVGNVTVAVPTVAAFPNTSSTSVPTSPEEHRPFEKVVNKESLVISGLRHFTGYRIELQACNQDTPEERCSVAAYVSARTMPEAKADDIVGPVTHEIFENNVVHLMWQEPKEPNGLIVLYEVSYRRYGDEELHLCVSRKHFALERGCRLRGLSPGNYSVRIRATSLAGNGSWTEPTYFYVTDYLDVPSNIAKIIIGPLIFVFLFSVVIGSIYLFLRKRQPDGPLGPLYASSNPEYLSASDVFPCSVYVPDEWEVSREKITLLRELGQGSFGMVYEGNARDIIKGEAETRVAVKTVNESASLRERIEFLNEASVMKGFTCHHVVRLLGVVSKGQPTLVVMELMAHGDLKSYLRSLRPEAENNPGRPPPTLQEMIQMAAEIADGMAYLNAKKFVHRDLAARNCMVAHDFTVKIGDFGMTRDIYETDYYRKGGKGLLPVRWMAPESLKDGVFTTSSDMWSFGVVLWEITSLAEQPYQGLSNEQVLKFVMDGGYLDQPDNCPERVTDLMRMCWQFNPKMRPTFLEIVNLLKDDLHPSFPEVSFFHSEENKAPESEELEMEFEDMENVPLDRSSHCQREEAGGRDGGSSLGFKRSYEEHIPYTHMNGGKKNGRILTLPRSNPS

[6] = molecular target: T3, Ephrin type-B receptor 3 (Homo sapiens) (UniProt P54753); assay: Selectivity interaction (KinomeScan (DiscoverX)) EUB0000618a EPHB3; conditions: at 10 µM
T3 sequence (whole entry): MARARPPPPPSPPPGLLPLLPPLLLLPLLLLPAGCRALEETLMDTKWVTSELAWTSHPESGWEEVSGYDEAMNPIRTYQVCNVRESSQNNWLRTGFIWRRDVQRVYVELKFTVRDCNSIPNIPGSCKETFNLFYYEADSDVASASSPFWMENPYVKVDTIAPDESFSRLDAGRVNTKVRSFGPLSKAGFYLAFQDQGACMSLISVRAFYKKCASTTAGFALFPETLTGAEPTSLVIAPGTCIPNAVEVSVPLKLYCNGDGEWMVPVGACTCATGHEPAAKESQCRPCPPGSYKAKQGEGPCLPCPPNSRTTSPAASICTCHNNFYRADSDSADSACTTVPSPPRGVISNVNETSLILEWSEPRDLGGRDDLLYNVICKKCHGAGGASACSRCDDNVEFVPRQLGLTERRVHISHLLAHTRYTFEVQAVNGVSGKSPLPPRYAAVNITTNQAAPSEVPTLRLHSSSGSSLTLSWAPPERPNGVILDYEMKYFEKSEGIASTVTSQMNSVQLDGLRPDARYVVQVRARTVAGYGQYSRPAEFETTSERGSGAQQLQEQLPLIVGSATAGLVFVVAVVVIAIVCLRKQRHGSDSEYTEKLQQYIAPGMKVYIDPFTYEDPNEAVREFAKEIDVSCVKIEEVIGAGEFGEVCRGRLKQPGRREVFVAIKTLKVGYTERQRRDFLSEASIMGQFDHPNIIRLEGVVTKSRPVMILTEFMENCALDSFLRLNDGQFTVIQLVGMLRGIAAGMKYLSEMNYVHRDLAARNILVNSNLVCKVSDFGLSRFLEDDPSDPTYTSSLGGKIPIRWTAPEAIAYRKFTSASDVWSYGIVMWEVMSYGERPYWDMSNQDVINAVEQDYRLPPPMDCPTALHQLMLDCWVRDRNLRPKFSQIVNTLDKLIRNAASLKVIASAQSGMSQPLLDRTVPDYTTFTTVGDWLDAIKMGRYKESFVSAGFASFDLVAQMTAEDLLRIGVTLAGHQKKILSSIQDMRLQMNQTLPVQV

Sequence of Serine/threonine-protein kinase NIM1 (Q8IY84 whole entry): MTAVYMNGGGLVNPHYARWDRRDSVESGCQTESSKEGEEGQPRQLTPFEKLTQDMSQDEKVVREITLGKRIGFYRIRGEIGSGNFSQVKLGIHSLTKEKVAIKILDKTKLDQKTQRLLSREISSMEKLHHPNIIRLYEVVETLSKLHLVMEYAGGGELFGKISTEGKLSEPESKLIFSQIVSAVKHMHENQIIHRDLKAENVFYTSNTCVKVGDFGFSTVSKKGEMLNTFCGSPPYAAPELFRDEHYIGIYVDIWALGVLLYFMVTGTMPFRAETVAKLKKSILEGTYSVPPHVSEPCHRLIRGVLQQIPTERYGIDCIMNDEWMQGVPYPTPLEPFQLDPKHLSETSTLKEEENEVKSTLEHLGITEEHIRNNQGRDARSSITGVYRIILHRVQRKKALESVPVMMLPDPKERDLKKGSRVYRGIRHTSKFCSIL

Compound: Cn1cc(-n2cnc3c(NCc4nc5cc(Cl)c(Cl)cc5[nH]4)nc(N4CCOCC4)nc32)cn1
- % of control [1]: 4.54%
- % of inhibition [2]: -166%

Compound: C=CC(=O)Nc1cccc(C(=O)Nc2ccc(Nc3cc(-c4[nH]c(SC)nc4C)ccn3)cc2)c1
- % of control ([3]; at 1 µM): 82%
- % of control ([3]; at 5 µM): 92%

Compound: Nc1cnc(N2CCc3cc(S(=O)(=O)Nc4c(F)cc(Cl)cc4F)cc(N4CCCC4=O)c32)nc1 [TP-020n]
- % of control [4]: 100%

Compound: COc1cc(N(C)c2ccnc3ccc(C(F)(F)F)cc23)cc(OC)c1OC
- % binding [5]: 100%

Compound: Cc1cc([C@@H](C)Nc2ccccc2C(=O)O)c2nc(N3CCOCC3)cc(=O)n2c1 [AZD-6482]
- % of control (Insulin receptor): 100%

Compound: O[C@H]1CC[C@H](Nc2ncc3nc(Nc4c(F)cc(F)cc4F)n([C@H]4CCOC4)c3n2)CC1
- % of control [6]: 84%
